# What was measured:
# MDA-MB-231 cells = assay: MDA-MB-231 cell proliferation assay (MTT); type: cell-based, human
# Experimental: The human breast carcinoma cell line MDA-MB-231 was obtained from ATCC (Manassas, VA) and grown in a sterile humidified environment at 37°C and 5% CO2: 95% air with complete DMEM media. The proliferation study was done by MTT assay which uses a tetrazolium compound [3-(4, 5-dimethylthiazol-2-yl)-2,5-diphenyltetrazolium bromide; MTT], which is converted into a formazan product by living cells. The MDA-MB-231 cells were plated in a 96 well plate at 12,500 cells/well at a confluency of 40%. The serum containing media was replaced with serum free media 5 hrs before treatment. The cells were then treated with auraptene at 1 – 50 μM auraptene in DMSO (0.1%, v/v). The control cells received vehicle only (DMSO, 0.1% v/v). After 24 hrs of treatment the cells were treated with MTT for 2 h and the absorbance was measured at 540 nm.
# Figure 2 Effects of auraptene on human breast carcinoma cells. (A) Effects of auraptene on MDA-MB-231 cell proliferation. Cells were serum starved for 5 h and then treated with 1–50 μM auraptene in […]. Cell proliferation was assessed using the MTT reagent. Figures represent % vehicle control (means ± S.E.) # Replicates = 2 plates at 6 wells each for the treatment groups and 12 wells for the control group (* statistically different from control group, p < 0.05, One-way ANOVA, Tukey test). (B) Effects of auraptene on MCF-7 cell proliferation. Cells were serum starved for 24 h. At 22 h after serum starvation the cells were treated with 1–50 μM auraptene in […]. At 24 h serum starvation, the cells were treated with IGF-1 (10 ng/mL). Cell proliferation was assessed using the MTS reagent. Figures represent % vehicle control (mean± S.E.) # Replicates = 2 plates at 6 wells each for the treatment groups. (* statistically different from IGF-1 group, p < 0.05, One-way ANOVA, Tukey test). (C) Effects of auraptene on IGF-1 induced cyclin D1 expression. MCF-7 cells were serum starved for 24 h. At 22 h after serum starvation the cells were treated with10 μM auraptene in […]. At 24 h serum starvation the cells were treated with IGF-1 (10 ng/mL). The cells were harvested at the 15, 30 minutes and at 1 h, 2 h, 4 h, 8 h and 24 h. The cell lysates were probed for cyclin D1. […] The lower band (36 KD) is cyclin D1 and the upper band is β-actin (43 KD).
# cyclin D1 = assay: Western blot of IGF-1 induced cyclin D1 expression in MCF-7 cells; type: cell-based, human; conditions: 10 μM auraptene, 2 h pretreatment, 8 h after IGF-1, MCF-7 cells
# Experimental: To study the effect of auraptene on the expression on cyclin D1, MCF-7 cells were plated in eight 12-well plates at 1.5 × 10^4 cells/well. The cells were incubated at 37°C till the next day in media with serum. The cells were serum starved for synchronization in serum free media for the next 24 h. At 22 h of serum starvation, the cells except in DMSO only and IGF-1 only groups, were treated with 10 μM auraptene in DMSO. At 24 h of serum starvation, the cells except in DMSO group were treated with 10 ng/mL of IGF-1. The cells were harvested at 5,15 and 30 minutes and at 1 h, 2 h, 4 h, 8 h and 24 h after IGF-1 treatment by directly adding boiling Laemmeli buffer. The cyclin D1 expression was then analyzed by western blot. In short, equal volumes (15 μL) of the sample in Laemmeli buffer was loaded into each well and resolved. The separated proteins were then electroblotted on a 0.45 μm pore size PVDF membrane (Immobilon-P, Millipore, Billerica, MA). After the protein transfer the membrane was placed in Millipore SNAP id Protein Detection System. […] The band intensity was evaluated using the Image-J software. […]
# Figure 2 Effects of auraptene on human breast carcinoma cells. […] Cell proliferation was assessed using the MTT reagent. […] Cell proliferation was assessed using the MTS reagent. […]
smiles,measurement,setting,value
CC(C)=CCC/C(C)=C/COc1ccc2ccc(=O)oc2c1 [auraptene],reduction in MDA-MB-231 cell proliferation,"MDA-MB-231 cells; 10 μM auraptene, 24 hrs, MTT",about 23%
same,suppression of MDA-MB-231 cell proliferation,"MDA-MB-231 cells; 25 μM auraptene, 24 hrs, MTT",85%
same,suppression of MDA-MB-231 cell proliferation,MDA-MB-231 cells; 50 μM auraptene compared with 25 μM,did not achieve any higher suppression of cell proliferation
same,IC50,"MDA-MB-231 cells; Homo sapiens, MDA-MB-231, 24 hrs treatment, serum free media, MTT, read-out: concentration suppressing MDA-MB-231 cell proliferation by 50%",12 µM
same,IGF-1 induced cyclin D1 expression,cyclin D1,nearly a total loss of IGF-1 induced cyclin D1 expression
